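Briefly, cells in 96-well plates were exposed to five compound concentrations for 48 h, and endpoints were estimated by linear interpolation. GI50 is the concentration that inhibits growth by half.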 Active and inactive are the calls of the source. No stated cut-off is given here; in the data, active = GI50 up to about 1.1 µM and inactive = higher.
Columns and labels:
Assay in all cases: NCI tumour cell line growth inhibition, 48 h
T47D = test system: T47D
HT-29 = test system: HT-29
KM12 = test system: KM12
OVCAR-4 = test system: OVCAR-4
OVCAR-5 = test system: OVCAR-5
TK-10 = test system: TK-10
HCC 2998 = test system: HCC 2998
M14 = test system: M14
UACC-257 = test system: UACC-257
SNB-75 = test system: SNB-75
SK-MEL-2 = test system: SK-MEL-2
EKVX = test system: EKVX
SN12C = test system: SN12C
HOP-62 = test system: HOP-62
MDA-N = test system: MDA-N
CAKI-1 = test system: CAKI-1
COLO 205 = test system: COLO 205
OVCAR-8 = test system: OVCAR-8
NCI-H23 = test system: NCI-H23

Measured: GI50

CC(=O)OC1CCC2(C)C(=CCC3C2CCC2(C)C(C(C)C(=O)O)CCC32)C1 (stereo unspecified)
inactive: T47D > 100 µM | HT-29 48.6 µM | KM12 84.7 µM | OVCAR-4 > 100 µM | OVCAR-5 > 100 µM | TK-10 > 100 µM | HCC 2998 57 µM | M14 > 100 µM | UACC-257 > 100 µM | SNB-75 > 100 µM | SK-MEL-2 > 100 µM | EKVX 56.9 µM | SN12C > 100 µM | HOP-62 > 100 µM | MDA-N > 100 µM | CAKI-1 > 100 µM | COLO 205 39.9 µM | OVCAR-8 > 100 µM | NCI-H23 > 100 µM

Cc1cnc2c(c1)C(=O)N(c1ccc(Br)cc1)S2(=O)=O
inactive: T47D > 100 µM | HT-29 > 100 µM | KM12 > 100 µM | OVCAR-4 44.4 µM | OVCAR-5 > 100 µM | TK-10 > 100 µM | HCC 2998 > 100 µM | M14 > 100 µM | UACC-257 > 100 µM | SNB-75 37.3 µM | SK-MEL-2 > 100 µM | EKVX 35.6 µM | SN12C > 100 µM | HOP-62 50.5 µM | MDA-N > 100 µM | CAKI-1 > 100 µM | COLO 205 > 100 µM | OVCAR-8 > 100 µM | NCI-H23 > 100 µM

Cc1ccc2c(n1)C(=O)c1cc(C)c(C)cc1C2=O
inactive: T47D 49.5 µM | HT-29 36.9 µM | KM12 53.2 µM | OVCAR-4 70.3 µM | OVCAR-5 68.9 µM | TK-10 > 100 µM | HCC 2998 98.2 µM | M14 > 100 µM | UACC-257 30.4 µM | SNB-75 27.5 µM | SK-MEL-2 > 100 µM | EKVX 50.8 µM | SN12C 56.9 µM | HOP-62 > 100 µM | MDA-N > 100 µM | CAKI-1 > 100 µM | COLO 205 32 µM | OVCAR-8 54.3 µM | NCI-H23 > 100 µM

O=C1Nc2ccccc2/C1=N/N=C1NCCCCN1
inactive: T47D 57.8 µM | HT-29 > 100 µM | KM12 > 100 µM | OVCAR-4 > 100 µM | OVCAR-5 > 100 µM | TK-10 > 100 µM | HCC 2998 > 100 µM | M14 > 100 µM | UACC-257 > 100 µM | SNB-75 > 100 µM | SK-MEL-2 > 100 µM | EKVX > 100 µM | SN12C > 100 µM | HOP-62 > 100 µM | MDA-N > 100 µM | CAKI-1 > 100 µM | COLO 205 > 100 µM | OVCAR-8 > 100 µM | NCI-H23 > 100 µM

Reference: ChEMBL document CHEMBL1201862, “PubChem BioAssay data set” (2004)
